Results published in publication PMC5352738, “Characterization of three pyranose dehydrogenase isoforms from the litter-decomposing basidiomycete Leucoagaricus meleagris (syn. Agaricus meleagris)” (Applied Microbiology and Biotechnology, 2016).
One block for each molecule: values may come before it.

Assays:
Assay type in all cases: biochemical
[1] = target: T1, AmPDH1 (Macropsalliota meleagris, UniProt Q3L245); experiment: steady-state kinetics, absorbance at […] nm; details: read-out: AmPDH1 / K m
T1 construct: gene pdh1; full-length pdh1 (602 aa precursor) in pPICZB-His6, His6-tag kept, secreted from Pichia pastoris X33; N-glycosylated monomer, ~65 kDa deglycosylated; covalent FAD
T1 sequence (Q3L245 26-602): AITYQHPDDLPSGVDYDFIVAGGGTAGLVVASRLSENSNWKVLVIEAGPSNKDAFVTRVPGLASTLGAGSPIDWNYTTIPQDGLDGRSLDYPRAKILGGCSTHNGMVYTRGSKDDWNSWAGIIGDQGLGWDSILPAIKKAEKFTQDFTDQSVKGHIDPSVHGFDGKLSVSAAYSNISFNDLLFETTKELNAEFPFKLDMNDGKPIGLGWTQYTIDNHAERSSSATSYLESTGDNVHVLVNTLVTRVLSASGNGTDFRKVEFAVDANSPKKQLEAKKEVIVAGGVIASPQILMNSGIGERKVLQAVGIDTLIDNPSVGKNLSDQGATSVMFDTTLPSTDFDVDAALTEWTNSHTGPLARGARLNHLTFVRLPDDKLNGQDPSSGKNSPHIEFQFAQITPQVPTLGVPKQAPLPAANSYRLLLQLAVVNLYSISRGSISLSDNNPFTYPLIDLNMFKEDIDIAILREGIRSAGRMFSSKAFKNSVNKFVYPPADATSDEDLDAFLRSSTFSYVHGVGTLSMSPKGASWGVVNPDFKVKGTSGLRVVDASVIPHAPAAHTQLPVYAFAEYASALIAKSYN

[2] = target: T1, AmPDH1; experiment: steady-state ferrocenium assay, […] nm; details: electron donor; 0.2 mM ferrocenium, 50 mM Na phosphate pH 7.5, 30 °C; read-out: AmPDH1 / K m
[3] = target: T2, AmPDH3 (Macropsalliota meleagris, UniProt Q0R4L2); experiment: steady-state kinetics, absorbance at […] nm; details: electron acceptor; 25 mM D-glucose, 100 mM Na borate pH 8.5, 30 °C; read-out: AmPDH3 / K m
T2 construct: gene pdh3; full-length pdh3 (600 aa precursor) in pPICZB-His6, His6-tag kept, secreted from Pichia pastoris X33; strongly N-glycosylated, ~65 kDa deglycosylated; standard yellow form with covalent FAD
T2 sequence (Q0R4L2 26-600): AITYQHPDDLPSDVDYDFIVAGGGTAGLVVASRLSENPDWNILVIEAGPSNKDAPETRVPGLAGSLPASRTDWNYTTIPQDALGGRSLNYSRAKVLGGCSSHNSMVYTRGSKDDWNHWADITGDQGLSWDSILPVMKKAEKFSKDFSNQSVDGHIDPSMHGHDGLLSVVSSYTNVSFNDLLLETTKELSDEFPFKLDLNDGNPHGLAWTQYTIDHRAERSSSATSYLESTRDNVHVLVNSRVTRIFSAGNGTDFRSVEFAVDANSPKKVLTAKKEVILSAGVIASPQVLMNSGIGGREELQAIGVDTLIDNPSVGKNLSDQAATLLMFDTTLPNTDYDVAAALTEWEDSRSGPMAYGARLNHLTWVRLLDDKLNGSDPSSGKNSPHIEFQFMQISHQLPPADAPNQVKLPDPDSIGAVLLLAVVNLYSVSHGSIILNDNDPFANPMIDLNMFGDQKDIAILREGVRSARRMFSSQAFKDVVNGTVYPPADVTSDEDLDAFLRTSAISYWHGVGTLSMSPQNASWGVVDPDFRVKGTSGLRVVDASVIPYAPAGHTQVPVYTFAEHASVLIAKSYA

[4] = target: T3, AmPDH2 (Macropsalliota meleagris, UniProt Q3L243); experiment: steady-state kinetics, absorbance at […] nm; details: electron acceptor; 25 mM D-glucose, 100 mM Na borate pH 8.5, 30 °C; read-out: AmPDH2 / K m
T3 construct: gene pdh2; full-length pdh2 (600 aa precursor) in pPICZB-His6, His6-tag kept, secreted from Pichia pastoris X33; N-glycosylated, ~65 kDa deglycosylated; covalent FAD
T3 sequence (Q3L243 26-600): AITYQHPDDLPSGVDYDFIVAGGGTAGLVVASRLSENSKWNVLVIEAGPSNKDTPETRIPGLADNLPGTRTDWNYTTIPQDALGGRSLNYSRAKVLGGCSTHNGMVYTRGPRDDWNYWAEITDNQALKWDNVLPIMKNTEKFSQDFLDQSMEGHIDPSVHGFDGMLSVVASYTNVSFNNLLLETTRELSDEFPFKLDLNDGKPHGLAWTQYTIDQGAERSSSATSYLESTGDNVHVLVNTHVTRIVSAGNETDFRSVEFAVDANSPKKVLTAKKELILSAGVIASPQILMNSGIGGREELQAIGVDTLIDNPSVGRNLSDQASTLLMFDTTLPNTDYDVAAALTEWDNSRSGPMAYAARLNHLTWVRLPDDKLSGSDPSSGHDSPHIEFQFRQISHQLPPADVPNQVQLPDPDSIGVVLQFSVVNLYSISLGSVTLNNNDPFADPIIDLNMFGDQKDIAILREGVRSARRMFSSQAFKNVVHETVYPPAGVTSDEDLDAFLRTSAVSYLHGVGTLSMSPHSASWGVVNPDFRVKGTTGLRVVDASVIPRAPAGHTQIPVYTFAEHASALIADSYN

[5] = target: T1, AmPDH1; experiment: steady-state kinetics, absorbance at […] nm; details: electron acceptor; 25 mM D-glucose, 100 mM Na borate pH 8.5, 30 °C; read-out: AmPDH1 / K m

SMILES: O=C1C=CC(=O)C=C1 [1,4-benzoquinone]
Km [1]: 1380 ± 280 µM

Km [2]: 820 ± 10 µM
SMILES: OC[C@H]1OC(O)[C@H](O)[C@@H](O)[C@@H]1O (stereo partly drawn) [D-glucose]

Km [3]: 10.3 ± 0.9 µM
Km [4]: 20.1 ± 2.3 µM
Km [5]: 161 ± 38 µM
SMILES: C1=CCC=C1.C1=CCC=C1.[Fe+3] [ferrocenium cation]
